# Measurements taken from article PMC6745035, “Novel tetrahydroacridine derivatives with iodobenzoic moieties induce G0/G1 cell cycle arrest and apoptosis in A549 non-small lung cancer and HT-29 colorectal cancer cells” (Molecular and Cellular Biochemistry, 2019).
# Like-named read-outs stand apart in the source and are kept apart here.
# Experiments:
# A549 cells = experiment: MTT cytotoxicity assay, A549; format: cell-based, human
# Excerpt: A549 cell line (lung carcinoma from human) (European Collection of Cell Culture) and HT-29 cell line (colorectal adenocarcinoma from human) (American Type Culture Collection) were chosen to evaluate the cytotoxicity of novel compounds.
# (§1) The MTT assay was used to evaluate cell metabolic activity. The test principle is based on the determination of cell viability by measuring the metabolic activity in mitochondria. Enzymatically active mitochondria reduce the water-soluble MTT (3-(4,5-dimethylthiazol-2-yl)-2,5 diphenyltetrazoliumbromide) to blue–violet insoluble formazan. The number of viability cells is proportional to the colour intensity determined by photometric measurements (an analytical wavelength 570 nm) after dissolving the formazan in Dimethylsulfoxide (DMSO) (Serva) and Sorensen’s glycine buffer. MTT (Sigma Aldrich) was dissolved in Phosphate Buffered Saline (PBS) (PAN-Biotech) at a concentration of 0.5 mg/mL. Sorensen’s glycine buffer is made of 0.1 M glycine and 0.1 M NaCl, at pH 10.5. Studied compounds were dissolved in DMSO in order to receive stock solutions.
# (§2) For the assay, cells were seeded into 96-well plates at density 10^4 cells per well and cultured for 24 h at 37 °C and 5% CO2. Then medium was removed, and cells were exposed to the 100 µL of the compound solutions over a range of concentrations (final DMSO concentration was below 0.2%) or nothing but culture medium (blank control). Pure DMSO was used as a positive control. After 24 h of incubation with the compound solutions, medium was removed and 50 µL of the MTT solution was added to each well and incubated in the dark for additional 2 h at 37 °C. Then the MTT solution was carefully removed and 100 µL of DMSO was added. Plates were incubated for 10 min at room temperature. Finally, 5 µL of Sorensen Buffer was added to each well. Plate was swayed, and the absorbance was measured by using microplate reader (Synergy H1, BioTek, Winooski, VT, USA) at a wavelength of 570 nm. The cell viability was expressed as a percentage of the control values (blank). The experiments were done in triplicate.
# HT-29 cells [1] = experiment: MTT cytotoxicity assay, HT-29; format: cell-based; details: Homo sapiens, read-out: IC50 µM ± SD against HT-29
# Excerpt: as §1, §2
# EA.hy926 cells = experiment: MTT cytotoxicity assay, EA.hy926; format: cell-based, human
# Excerpt: The EA.hy926 cells (the human umbilical vein, somatic cell hybrid) (American Type Culture Collection) are immortalized human umbilical vein endothelial cells. They have morphological, phenotypic and functional characteristics of human endothelial cells, without the limited lifespan. This cell line has been considered as a good model for anticancer drug screening and was chosen to evaluate the endothelial cytotoxicity of novel compounds.
# as §1, §2
# PARP-1 = experiment: Western blot of PARP-1 cleavage, HT-29; format: cell-based, human; details: HT-29, 24 h, IC50 and 1/2IC50
# Procedure: (§3) Then, cells were treated with chosen compounds. After 24 h of incubation, monolayer and supernatant were harvested and washed in cold PBS. Cells were centrifuged—monolayer at 1200 rpm for 10 min, supernatant 3500 rpm for 10 min. Pellets were dissolved in RIPA Lysis and Extraction buffer (Bio-Rad) containing Phosphatase Inhibitor Cocktail 3 (Sigma Aldrich) and Protease Inhibitor Cocktail (Sigma Aldrich). Samples were incubated in ice for 30 min and mixed every 10 min. Then, samples were centrifuged at 12,000 rpm for 25 min. Protein concentration in supernatants was measured in triplicate using a Protein Assay (Bio-Rad). Proteins were separated by SDS–polyacrylamide gel electrophoresis. Separating and stacking gels were made of different ratios of water, Tris–HCl pH 6.8 and pH 8.8, 10% SDS (Sigma Aldrich), Acrylamide/bis-acrylamide (Sigma Aldrich), 10% APS (Sigma Aldrich), TEMED (Sigma Aldrich). 7.5% gels were prepared for analysis PARP-1, whereas 12% gels prepared for γ-H2AX. After separation on SDS–polyacrylamide gels, proteins were electroblotted on nitrocellulose membrane in Transfer Buffer (Glycine, Tris, Methanol). Membranes were washed in TBS/0.1% or 0.05% Tween20 solution and blocked in Tris-buffered saline with 5% of non-fated dried milk for 1 h. Membranes were then incubated overnight with primary antibodies—anti-PARP-1 (Cell Signaling Technology), anti-γ-H2A.X (Cell Signaling Technology), anti-β-actin (Cell Signaling Technology) in cold room (6 °C). After incubation, membranes well washed with TBS/Tween solution and blocked with and horseradish peroxidase-conjugated secondary antibodies (Bio-Rad) for 1 h in cold room. Protein bands were visualized using ECL™ Prime Western Blotting Detection Reagents (Sigma Aldrich) Healthcare and Carestream Kodak autoradiography GBX fixer/replenisher (Sigma Aldrich) with Developer and Replenisher (Carestream) in the dark room. Results were obtained on Autoradiography Film (Santa Cruz Biotechnology). Densitometric analysis was performed by using a software program (ImageJ). […]
# γ-H2AX = experiment: Western blot of γ-H2AX, HT-29; format: cell-based, human; details: HT-29, 24 h, IC50 and 1/2IC50
# Procedure: as §3
# SH-SY5Y cells [2] = experiment: Cytoprotection against rotenone/oligomycin A, pre-incubation, MTT; format: cell-based, human; details: for Cytoprotection: pre-incubation with rotenone/oligomycin A;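 for Cytoprotection: Toxic mixture Rotenone 30 µM plus Oligomycin A 10 µM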
# Procedure: Rotenone with oligomycin A (R/O) were taken to induce mitochondrial ROS by blocking of complexes I and V of the mitochondrial electron transport chain. It causes free radical production and blockade of ATP synthesis. In the pre-incubation experiment, it could be assessed whether the compounds have cytoprotective properties due to the activation of endogenous antioxidant pathways. In the co-incubation could be shown whether compounds are free-radical scavengers. MTT assay was a test of choice, because in this assay mitochondrial activity is measured. […] It can be determined whether novel compound would protect cells from both apoptotic and necrotic death resulting from the increase of intracellular ROS. In both experiments, trolox was used as a reference compound. […] After this time, toxic mixture was added, and cells were maintained for an additional 24 h in the presence of the compounds.
# HT-29 cells [3] = experiment: Reactive oxygen species assay (DCFH-DA), HT-29; format: cell-based, human; details: compound at IC50 24 h plus H2O2, H2O2 only 1.88-fold
# Procedure: After incubation, compounds were added into the wells and further incubated for next 24 h. H2O2 (1 mM) was added at 22nd h of incubation with compounds. H2O2 was used as a positive control. 30 min before the analysis, DCFH-DA (20 µM) was added to the wells. After incubation, cells were harvested and washed in PBS. Then, cells were centrifuged at 1500 rpm for 10 min. Medium was removed and cells were suspended in PBS. Analysis was performed on BD Accuri C6 Flow Cytometry (Becton–Dickinson).
# SH-SY5Y cells [4] = experiment: Cytoprotection against H2O2 (100 µM), MTT; details: for Cells viability (%) ± SD after 24 h of incubation with compound and H2O2: H2O2 only 82.74%; for viability at 1 µM: Homo sapiens, 24 h, read-out: Cells viability (%) ± SD after 24 h of incubation with compound and H2O2
# supercoiled pUC19 DNA = details: 100 µM; human Topoisomerase I
# [5] = target: T1, hyaluronidase from bovine testes Type I-S (Bos taurus, UniProt Q2YDK3); experiment: Hyaluronidase inhibition assay (turbidimetric); format: biochemical; details: read-out: HYAL IC50 ± SD
# T1 construct: purchased Sigma Aldrich; host or cells: bovine testes (tissue-derived preparation)
# T1 sequence (Q2YDK3 36-553): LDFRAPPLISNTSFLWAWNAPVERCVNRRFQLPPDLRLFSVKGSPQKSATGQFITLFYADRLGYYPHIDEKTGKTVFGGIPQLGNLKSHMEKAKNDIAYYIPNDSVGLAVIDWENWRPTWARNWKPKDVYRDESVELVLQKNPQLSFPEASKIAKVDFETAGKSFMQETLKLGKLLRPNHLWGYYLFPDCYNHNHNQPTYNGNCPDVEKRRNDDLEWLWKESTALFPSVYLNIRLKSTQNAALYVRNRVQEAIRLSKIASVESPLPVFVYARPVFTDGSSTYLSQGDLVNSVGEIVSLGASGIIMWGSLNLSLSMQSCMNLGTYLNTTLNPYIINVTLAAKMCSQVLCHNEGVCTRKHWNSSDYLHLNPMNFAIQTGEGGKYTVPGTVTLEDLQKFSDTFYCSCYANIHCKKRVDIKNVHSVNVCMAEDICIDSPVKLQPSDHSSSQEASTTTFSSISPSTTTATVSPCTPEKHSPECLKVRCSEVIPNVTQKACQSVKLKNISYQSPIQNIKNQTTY
# SH-SY5Y cells [6] = experiment: Cytoprotection against rotenone/oligomycin A, co-incubation, MTT; format: cell-based, human; details: co-incubation with rotenone/oligomycin A
# Procedure: In the co-incubation assay, compounds and mixture of R/O were incubated together for 24 h. […] It turned out that none of the compounds (apart from 1i at the concentration of 0.001 µM and cytoprotection of 2.99%) had cytoprotective properties in the whole range of concentrations (Fig. 17). Compounds were not able to capture free radicals; therefore they cannot be classified as free-radical scavengers.
# [7] = Homo sapiens, A549, MTT, 24 h incubation, read-out: IC50 µM ± SD against A549
molecule,measurement,setting,value
O=C(NCCCCNc1c2c(nc3ccccc13)CCCC2)c1cccc(I)c1 [Compound 1f],IC50,"A549 cells; Homo sapiens, A549, 24 h, read-out: IC50 µM ± SD against A549, MTT, 24 h incubation",23.5 µM
same,IC50,"A549 cells; read-out: IC50 µM ± SD against A549, MTT, 24 h incubation",26.4 ± 2.45 µM
same,IC50,"HT-29 cells [1]; HT-29, 24 h",8.52 ± 0.1 µM
same,IC50,"EA.hy926 cells; Homo sapiens, EA.hy 926, 24 h, read-out: IC50 µM ± SD against EA.hy926, MTT, 24 h incubation",11.7 µM
same,IC50,"EA.hy926 cells; read-out: IC50 µM ± SD against EA.hy926, MTT, 24 h incubation",12.4 ± 1.31 µM
same,Cleaved PARP-1 (89 kDa) level (in words),PARP-1,lower apoptosis at IC50 concentrations
same,γ-H2AX protein level / DNA damage (in words),γ-H2AX,strongest H2AX phosphorylation
same,Cytoprotection,SH-SY5Y cells [2]; 0.001 µM,57.16%
same,Cytoprotection,SH-SY5Y cells [2]; 0.01 µM,35.65%
same,Cytoprotection,SH-SY5Y cells [2]; 0.1 µM,35.21%
same,Cytoprotection,SH-SY5Y cells [2]; 1 µM,30.81%
same,Cytoprotective properties in the pre-incubation assay (in words),"SH-SY5Y cells [2]; rotenone/oligomycin A, range of concentration 1–0.001 µM",showed their action against oxidative stress in the whole range of concentrations
same,Increase in ROS level (DCF fluorescence) in comparison with non-treated control,HT-29 cells [3],1.87 fold
same,Cells viability (%) ± SD after 24 h of incubation with compound and H2O2,"SH-SY5Y cells [4]; H2O2 100 µM, concentration: 1b 16.26, 1c 6.79, 1e 11.75, 1f 4.26, 1i 5.90 µM",79.45 ± 9.87%
same,Cells viability (%) ± SD after 24 h of incubation with compound and H2O2,"SH-SY5Y cells [4]; H2O2 100 µM, concentration: 1b 65.04, 1c 27.16, 1e 46.98, 1f 17.04, 1i 29.74 µM",23.85 ± 2.08 %
same,viability at 1 µM,SH-SY5Y cells [4],94.3 ± 7.26%
same,Intercalation: supercoiled pUC19 DNA band (in words),supercoiled pUC19 DNA,bands at the same level as EB
"O=c1[nH]cc(F)c(=O)[nH]1 [5-Fluorouracil, reference compound]",IC50,"HT-29 cells [1]; HT-29, MTT, 24 h incubation",1630 ± 49.3 µM
same,IC50,"EA.hy926 cells; Homo sapiens, EA.hy 926, MTT, 24 h incubation, read-out: IC50 µM ± SD against EA.hy926",> 1800 µM
"COc1cc(NS(C)(=O)=O)ccc1Nc1c2ccccc2nc2ccccc12 [amsacrine, reference compound]",Intercalation: supercoiled pUC19 DNA band (in words),supercoiled pUC19 DNA,stronger intercalator than EB
O=C(NCCNc1c2c(nc3ccccc13)CCCC2)c1ccccc1I [Compound 1a],IC50,A549 cells; [7],36 ± 1.74 µM
same,IC50,"HT-29 cells [1]; HT-29, MTT, 24 h incubation",17.3 ± 1.22 µM
same,IC50,[5],234 ± 7.9 µM
O=C(NCCNc1c2c(nc3ccccc13)CCCC2)c1ccc(I)cc1 [Compound 1g],IC50,A549 cells; [7],20.8 ± 1.58 µM
same,IC50,"HT-29 cells [1]; HT-29, MTT, 24 h incubation",8.16 ± 0.44 µM
same,IC50,[5],191 ± 10.8 µM
"Cc1c(C)c2c(c(C)c1O)CCC(C)(C(=O)O)O2 (centres unmarked) [Trolox, 6-hydroxy-2,5,7,8-tetramethylchroman-2-carboxylic acid, reference compound]",Cytoprotection,SH-SY5Y cells [2]; 0.001 µM,0.98%
same,Cytoprotection,SH-SY5Y cells [2]; 1 µM,0.53%
same,Cytoprotection,SH-SY5Y cells [6]; 0.001 µM,9.08%
same,Cytoprotection,SH-SY5Y cells [6]; 0.01 µM,8.18%
same,Cytoprotection,SH-SY5Y cells [6]; 0.1 µM,4.02%
same,Cytoprotection,SH-SY5Y cells [6]; 1 µM,6.12%
same,Cytoprotection against H2O2,"SH-SY5Y cells [4]; H2O2 100 µM, 1 µM",96.38%
same,viability at 1 µM,SH-SY5Y cells [4],99.4 ± 9.81%
Heparin [reference compound],IC50,[5],56.4 ± 0.78 µM
O=C(NCCNc1c2c(nc3ccccc13)CCCC2)c1cccc(I)c1 [Compound 1d],IC50,A549 cells; [7],41.2 ± 1.27 µM
same,IC50,"HT-29 cells [1]; HT-29, MTT, 24 h incubation",7.62 ± 0.19 µM
same,IC50,[5],300 ± 6.3 µM
O=C(NCCCNc1c2c(nc3ccccc13)CCCC2)c1ccc(I)cc1 [Compound 1h],IC50,A549 cells; [7],21.4 ± 1.54 µM
same,IC50,"HT-29 cells [1]; HT-29, MTT, 24 h incubation",9.4 ± 1.65 µM
same,IC50,[5],201 ± 8.36 µM
